Literature values, collected in US7534449B2, “Targeted and high density drug loaded polymeric materials” (Yale University, priority 2004, dated 2009).

pKa: 7.6
solubility (aqueous environments): limited solubility
Structure (SMILES): COc1cccc2c1C(=O)c1c(O)c3c(c(O)c1C2=O)C[C@@](O)(C(=O)CO)C[C@@H]3O[C@H]1C[C@H](N)[C@H](O)[C@H](C)O1 [Dox, doxorubicin]
